Tests used:
NCI-H460 = assay: cells; conditions: Homo sapiens, NCI-H460, 48 h
Description: Antiproliferative activity against human NCI-H460 cells assessed as inhibition of cell growth incubated for 48 hrs by propidium iodide staining based fluorometer assay

PC-3 = assay: cells; conditions: Homo sapiens, PC-3, 48 h
Description: Antiproliferative activity against human PC-3 cells assessed as inhibition of cell growth incubated for 48 hrs by propidium iodide staining based fluorometer assay

PANC-1 = assay: cells; conditions: Homo sapiens, PANC-1, 48 h
Description: Antiproliferative activity against human PANC-1 cells assessed as inhibition of cell growth incubated for 48 hrs by propidium iodide staining based fluorometer assay

MCF7 = assay: Antiproliferative activity against human MCF7 cells assessed as inhibition of cell growth incubated for 48 hrs by propidium iodide staining based fluorometer assay; type: functional; conditions: MCF7, 48 h
[1] = Cytotoxicity against human MCF-10A cells assessed as cell viability incubated for 96 hrs by MTT assay; type: toxicity, cell-based; parameters: concentration or dose not given beside the values; conditions: read-out: Activity
MIA PaCa-2 = assay: Antiproliferative activity against human MIA PaCa-2 cells assessed as inhibition of cell growth incubated for 48 hrs by propidium iodide staining based fluorometer assay; type: functional; conditions: MIA PaCa-2, 48 h
A549 = assay: Antiproliferative activity against human A549 cells assessed as inhibition of cell growth incubated for 48 hrs by propidium iodide staining based fluorometer assay; type: functional; conditions: A549, 48 h
HT-29 = assay: cells; conditions: Homo sapiens, HT-29, 48 h
Description: Antiproliferative activity against human HT-29 cells assessed as inhibition of cell growth incubated for 48 hrs by propidium iodide staining based fluorometer assay

Row | IC50 (NCI-H460) [µM] | IC50 (PC-3) [µM] | IC50 (PANC-1) [µM] | IC50 (MCF7) [µM] | IC50 (MIA PaCa-2) [µM] | IC50 (A549) [µM] | IC50 (HT-29) [µM] | SMILES | viability at 96 h [1] [%]
1 | 3.8 | 3.5 | 3.6 | 3.1 | 3.2 | 3.3 | 3 | COc1ccc(/C=C2\CCc3c(O)cccc3C2=O)c(Cl)c1OC | 91
2 | 2.2 | 2 | 2.6 | 2.8 | 2.4 | 2.2 | 2.8 | COc1cc2c(cc1OC)C(=O)/C(=C/c1cc(OC)c(OC)c(OC)c1Br)CC2 | 98
3 | 4.9 | 5.2 | 4.2 | 4.4 | 4.9 | 4.4 | 5.1 | COc1cccc(/C=C2\CCc3c(O)cccc3C2=O)c1Cl | 96
4 | 12.9 | 13.7 | 13.4 | 14.1 | 12.8 | 13.3 | 14 | COc1cccc(/C=C2\CCc3ccc(Br)cc3C2=O)c1Cl | 94
5 | 9.2 | 9.2 | 9.5 | 10.5 | 9.9 | 9.2 | 10.4 | COc1cc2c(cc1OC)C(=O)/C(=C/c1cccc(OC)c1Cl)CC2 | 91
6 | 4.7 | 3.9 | 4.2 | 5.7 | 4.6 | 4.5 | 3.9 | COc1cccc2c1CC/C(=C\c1cc(OC)c(OC)c(OC)c1Br)C2=O | 94
7 | 5 | 4.6 | 4.9 | 4.3 | 4.6 | 4.1 | 4.2 | COc1cc(/C=C2\COC/C(=C\c3cc(OC)c(OC)c(OC)c3Br)C2=O)c(Br)c(OC)c1OC | 92
8 | 4.7 | 4.7 | 4.5 | 5.1 | 4 | 4.6 | 4.4 | COc1ccc2c(c1)CC/C(=C\c1cccc(OC)c1Cl)C2=O | 95
9 | 7.9 | 7.2 | 7.4 | 7.2 | 6.7 | 8.8 | 7.1 | COc1cccc(/C=C2\CCc3c(OC)ccc(OC)c3C2=O)c1Cl | 98
10 | 1.3 | 1.4 | 1.2 | 1.4 | 1.5 | 1.3 | 1.4 | COc1cc(/C=C2\CCc3ccc([N+](=O)[O-])cc3C2=O)c(Br)c(OC)c1OC | 88
11 | 2.1 | 2.2 | 2.5 | 2.4 | 2.2 | 2.6 | 1.9 | COc1ccc(OC)c2c1CC/C(=C\c1cc(OC)c(OC)c(OC)c1Br)C2=O | 91
12 | 13.3 | 13.7 | 12.4 | 14.1 | 12.8 | 13.3 | 12.6 | COc1cccc(/C=C2\CCc3ccc(Cl)cc3C2=O)c1Cl | 94
13 | 6.4 | 7.2 | 6.9 | 6.4 | 6.7 | 6.7 | 6.7 | COc1cccc2c1CC/C(=C\c1ccc(OC)c(OC)c1Cl)C2=O | 95
14 | 13.9 | 15.7 | 15.6 | 15.4 | 15.5 | 16.2 | 10.3 | COc1ccc(/C=C2\CN(Cc3ccccc3)C/C(=C\c3ccc(OC)c(OC)c3Cl)C2=O)c(Cl)c1OC | 89
15 | 22.2 | 22 | 21.3 | 20.4 | 23.7 | 22.6 | 21.2 | COc1cc(/C=C2\CCc3ccccc3C2=O)c(Br)c(OC)c1OC | 94
16 | 14.1 | 18.7 | 17.5 | 17.6 | 17 | 15.4 | 15.9 | COc1cccc(/C=C2\CN(Cc3ccccc3)C/C(=C\c3cccc(OC)c3Cl)C2=O)c1Cl | 89
17 | 11.1 | 10.4 | 10.8 | 11.1 | 10.6 | 10.3 | 10.5 | COc1ccc(/C=C2\CCc3ccc(Br)cc3C2=O)c(Cl)c1OC | 92
18 | 5.8 | 5.2 | 5.4 | 5.4 | 5 | 5.4 | 5.2 | COc1cc2c(cc1OC)C(=O)/C(=C/c1ccc(OC)c(OC)c1Cl)CC2 | 97

Row | IC50 (NCI-H460) [µM] | IC50 (PC-3) [µM] | IC50 (PANC-1) [µM] | IC50 (MCF7) [µM] | IC50 (MIA PaCa-2) [µM] | IC50 (A549) [µM] | IC50 (HT-29) [µM] | SMILES | viability at 96 h [1] [%]
19 | 7.4 | 8.3 | 8.9 | 7.3 | 8.7 | 8.4 | 8.8 | COc1cccc(/C=C2\COC/C(=C\c3cccc(OC)c3Cl)C2=O)c1Cl | 88
20 | 8.9 | 10.3 | 8.5 | 10.1 | 8.9 | 8.2 | 9.6 | COc1cc(/C=C2\CCc3ccc(F)cc3C2=O)c(Br)c(OC)c1OC | 93
21 | 2.9 | 2.2 | 2.7 | 2.2 | 2.1 | 2.1 | 2.9 | CCN(CC)CCO/N=C1\C(=C\c2cc(OC)c(OC)c(OC)c2Br)CCc2c(OC)ccc(OC)c21 | 95
22 | 4.2 | 3.9 | 3.3 | 2.8 | 2.9 | 3.1 | 3.4 | COc1cccc(/C=C2\CC(C)C/C(=C\c3cccc(OC)c3Cl)C2=O)c1Cl (stereo not given) | 93
23 | 7.2 | 7 | 6.5 | 6.4 | 6.2 | 7.5 | 6.6 | COc1ccc(/C=C2\CNC/C(=C\c3ccc(OC)c(OC)c3Cl)C2=O)c(Cl)c1OC | 92
24 | 5.4 | 6.4 | 6.9 | 6.5 | 7.2 | 8.1 | 6.1 | COc1cccc(/C=C2\CCC/C(=C\c3cccc(OC)c3Cl)C2=O)c1Cl | 90
25 | 15.3 | 12.6 | 12.2 | 11.9 | 11.8 | 12.9 | 13.2 | COc1ccc(/C=C2\CC(C(C)C)C/C(=C\c3ccc(OC)c(OC)c3Cl)C2=O)c(Cl)c1OC (stereo not given) | 87
26 | 13.9 | 14.1 | 14.5 | 15.2 | 16.7 | 13.4 | 12.1 | COc1cccc(/C=C2\CC(C(C)C)C/C(=C\c3cccc(OC)c3Cl)C2=O)c1Cl (stereo not given) | 93
27 | 12.3 | 14.6 | 12.2 | 12.8 | 11.9 | 11.1 | 12 | COc1cc(/C=C2\CN(Cc3ccccc3)C/C(=C\c3cc(OC)c(OC)c(OC)c3Br)C2=O)c(Br)c(OC)c1OC | 91
28 | 3.5 | 3.3 | 3.4 | 3.3 | 3.2 | 3.9 | 3.8 | COc1ccc(/C=C2\CN(C)C/C(=C\c3ccc(OC)c(OC)c3Cl)C2=O)c(Cl)c1OC | 90
29 | 4.9 | 4.8 | 4.2 | 4 | 4.3 | 4.4 | 4.5 | COc1cc(/C=C2\CNC/C(=C\c3cc(OC)c(OC)c(OC)c3Br)C2=O)c(Br)c(OC)c1OC | 96
30 | 7.9 | 7.3 | 7.5 | 7.2 | 7.2 | 7.7 | 7.2 | COc1ccc(/C=C2\CC(C)c3ccccc3C2=O)c(Cl)c1OC (stereo not given) | 99
31 | 10.6 | 10.8 | 10.5 | 9.1 | 9.5 | 10.7 | 10.9 | COc1ccc(/C=C2\CCc3ccc(Cl)cc3C2=O)c(Cl)c1OC | 94
32 | 25.1 | 28.5 | 27.5 | 26.7 | 27.9 | 25.1 | 28.2 | COc1cccc(/C=C2\CCc3ccccc3C2=O)c1Cl | 92
33 | 10.6 | 9.3 | 9.8 | 9.8 | 9.6 | 10.9 | 9.4 | COc1ccc(/C=C2\CCc3ccc(F)cc3C2=O)c(Cl)c1OC | 95
34 | 22.9 | 23.4 | 24.5 | 20.5 | 23.2 | 23.3 | 26.5 | COc1ccc(/C=C2\CCc3ccccc3C2=O)c(Cl)c1OC | 96
35 | 9 | 8.4 | 8.5 | 9 | 8.7 | 6.4 | 8.4 | COc1cccc(/C=C2\CCc3c(OC)cccc3C2=O)c1Cl | 93
